The test system of the data set is CCRIS mutagenicity, Ames/micronucleus/aberration tests. The data set is described as follows: CCRIS mutagenicity studies.
Where [1] appears, read: Test System: AMES SALMONELLA TYPHIMURIUM, Strain/Indicator: TA98, Metabolic Activation: NONE, Method: STANDARD PLATE.
The mark [2] stands for this setting: Test System: AMES SALMONELLA TYPHIMURIUM, Strain/Indicator: TA98, Metabolic Activation: RAT, LIVER, S-9, AROCLOR 1254, Method: STANDARD PLATE.
Where [3] appears, read: Test System: AMES SALMONELLA TYPHIMURIUM, Strain/Indicator: TA100, Metabolic Activation: NONE, Method: STANDARD PLATE.

Active and inactive are the calls of the source. How the calls were made is not given here.

Take `O=[N+]([O-])c1ccc2c3c4c(cccc4c4ccccc4c13)[C@H](O)[C@H]2O`: the mutagenic call is, setting by setting: (Test System: AMES SALMONELLA TYPHIMURIUM, Strain/Indicator: TA98(1,8-DNP6), Metabolic Activation: NONE, Method: STANDARD PLATE) “active; positive”; (Test System: AMES SALMONELLA TYPHIMURIUM, Strain/Indicator: TA98(1,8-DNP6), Metabolic Activation: RAT, LIVER, S-9, AROCLOR 1254, Method: STANDARD PLATE) “active; positive”; (Test System: AMES SALMONELLA TYPHIMURIUM, Strain/Indicator: TA98(NR), Metabolic Activation: NONE, Method: STANDARD PLATE) “active; positive”; (Test System: AMES SALMONELLA TYPHIMURIUM, Strain/Indicator: TA98(NR), Metabolic Activation: RAT, LIVER, S-9, AROCLOR 1254, Method: STANDARD PLATE) “active; positive”; under setting [1], “active; positive”; under setting [2], “active; positive”.
Regarding `CN(CO)N=O`, the mutagenic call (Test System: CHINESE HAMSTER V-79, Strain/Indicator: V-79/OUABAIN, Metabolic Activation: NONE) was “active; positive”.
On to `CC(=O)CC(=O)CCC(=O)O`, for which the mutagenic call was “inactive; negative” (Test System: AMES SALMONELLA TYPHIMURIUM, Strain/Indicator: TA98, Metabolic Activation: HAMSTER, LIVER, S-9, AROCLOR 1254, Method: STANDARD PLATE); “inactive; negative” under setting [1]; “inactive; negative” under setting [2]; “inactive; negative” (Test System: AMES SALMONELLA TYPHIMURIUM, Strain/Indicator: TA100, Metabolic Activation: HAMSTER, LIVER, S-9, AROCLOR 1254, Method: STANDARD PLATE); “inactive; negative” under setting [3]; “inactive; negative” (Test System: AMES SALMONELLA TYPHIMURIUM, Strain/Indicator: TA100, Metabolic Activation: RAT, LIVER, S-9, AROCLOR 1254, Method: STANDARD PLATE). In addition, the mutagenic call was “inactive; negative” (Test System: AMES SALMONELLA TYPHIMURIUM, Strain/Indicator: TA1535, Metabolic Activation: HAMSTER, LIVER, S-9, AROCLOR 1254, Method: STANDARD PLATE); “inactive; negative” (Test System: AMES SALMONELLA TYPHIMURIUM, Strain/Indicator: TA1535, Metabolic Activation: NONE, Method: STANDARD PLATE); “inactive; negative” (Test System: AMES SALMONELLA TYPHIMURIUM, Strain/Indicator: TA1535, Metabolic Activation: RAT, LIVER, S-9, AROCLOR 1254, Method: STANDARD PLATE); “inactive; negative” (Test System: AMES SALMONELLA TYPHIMURIUM, Strain/Indicator: TA1537, Metabolic Activation: HAMSTER, LIVER, S-9, AROCLOR 1254, Method: STANDARD PLATE); “inactive; negative” (Test System: AMES SALMONELLA TYPHIMURIUM, Strain/Indicator: TA1537, Metabolic Activation: NONE, Method: STANDARD PLATE); “inactive; negative” (Test System: AMES SALMONELLA TYPHIMURIUM, Strain/Indicator: TA1537, Metabolic Activation: RAT, LIVER, S-9, AROCLOR 1254, Method: STANDARD PLATE). The mutagenic call reads like this: (Test System: AMES SALMONELLA TYPHIMURIUM, Strain/Indicator: TA1538, Metabolic Activation: HAMSTER, LIVER, S-9, AROCLOR 1254, Method: STANDARD PLATE) “inactive; negative”; (Test System: AMES SALMONELLA TYPHIMURIUM, Strain/Indicator: TA1538, Metabolic Activation: NONE, Method: STANDARD PLATE) “inactive; negative”; (Test System: AMES SALMONELLA TYPHIMURIUM, Strain/Indicator: TA1538, Metabolic Activation: RAT, LIVER, S-9, AROCLOR 1254, Method: STANDARD PLATE) “inactive; negative”; (Test System: CHINESE HAMSTER V-79, Strain/Indicator: V-79 (HGPRT)/6-THIOGUANINE, Metabolic Activation: NONE) “inactive; negative”; (Test System: MOUSE LYMPHOMA, Strain/Indicator: L5178Y (TK+/TK-), Metabolic Activation: NONE, Method: SUSPENSION/PLATE) “inactive; negative. reevaluation of results: negative”; (Test System: MOUSE LYMPHOMA, Strain/Indicator: L5178Y (TK+/TK-), Metabolic Activation: RAT, LIVER, S-9, AROCLOR 1254, Method: SUSPENSION/PLATE) “active; positive. reevaluation of results: positive”.
Take `COc1ccc(CNC(=O)C(C)Br)cc1` (stereo unspecified): the mutagenic call under setting [3] is “active; positive”.
With `CC1(C)CCC[C@]2(C)[C@H]3CC=C(C=O)[C@@H](C=O)[C@]3(C)CC[C@@H]12`, the mutagenic call reads like this: under setting [1], “inactive; negative”; under setting [3], “inactive; negative”; (Test System: AMES SALMONELLA TYPHIMURIUM, Strain/Indicator: TA2637, Metabolic Activation: NONE, Method: STANDARD PLATE) “inactive; negative”.
With `Cn1ccnc1N=O`, the mutagenic call under setting [3] was “active; positive”.
As to `Nc1cc(N)c(-c2ccccc2)c([N+](=O)[O-])c1`, the mutagenic call (Test System: AMES SALMONELLA TYPHIMURIUM, Strain/Indicator: TA98, Metabolic Activation: NONE, Method: PREINCUBATION) is “active; positive” and the mutagenic call (Test System: AMES SALMONELLA TYPHIMURIUM, Strain/Indicator: TA98, Metabolic Activation: RAT, LIVER, S-9, KANECHLOR 500, Method: PREINCUBATION) is “active; positive”.
In the case of `Cn1cc2ccc([N+](=O)[O-])cc2n1`, under setting [1], the mutagenic call was “active; positive”.
On to `CC(C)C(=O)Nc1snc2cc(Cl)ccc12`, for which the mutagenic call is, setting by setting: under setting [3], “inactive; negative”; (Test System: AMES SALMONELLA TYPHIMURIUM, Strain/Indicator: TA100, Metabolic Activation: S-9, Method: STANDARD PLATE) “inactive; negative”.
In the case of `COc1cccc2c1cc1c3c(cc4c(c32)OCO4)C(=O)N1[C@H]1O[C@H](CO)[C@@H](O)[C@H](O)[C@H]1O`, for the setting “Test System: AMES SALMONELLA TYPHIMURIUM, Strain/Indicator: TM677/8-AZAGUANINE, Metabolic Activation: NONE, Method: SUSPENSION/PLATE”, the mutagenic call is “inactive; negative”.
On to `CC(C)c1ccc(/C=C/c2ccc([N+](=O)[O-])cc2)cc1`, for which the mutagenic call runs as follows: under setting [1], “inactive; negative”; (Test System: AMES SALMONELLA TYPHIMURIUM, Strain/Indicator: TA98, Metabolic Activation: RAT, LIVER, S-9, AROCLOR, Method: STANDARD PLATE) “active; positive”; under setting [3], “inactive; negative”; (Test System: AMES SALMONELLA TYPHIMURIUM, Strain/Indicator: TA100, Metabolic Activation: RAT, LIVER, S-9, AROCLOR, Method: STANDARD PLATE) “active; positive”.
For `O=C1C=Cc2ccc3c4c(ccc1c24)C=CC3=O`, the mutagenic call runs as follows: (Test System: AMES SALMONELLA TYPHIMURIUM, Strain/Indicator: TA97, Metabolic Activation: NONE, Method: STANDARD PLATE) “active; positive”; (Test System: AMES SALMONELLA TYPHIMURIUM, Strain/Indicator: TA97, Metabolic Activation: RAT, LIVER, S-9, PCB, Method: STANDARD PLATE) “active; positive”; under setting [1], “inactive; negative”; (Test System: AMES SALMONELLA TYPHIMURIUM, Strain/Indicator: TA98, Metabolic Activation: RAT, LIVER, S-9, PCB, Method: STANDARD PLATE) “inactive; negative”; under setting [3], “inactive; negative”; (Test System: AMES SALMONELLA TYPHIMURIUM, Strain/Indicator: TA100, Metabolic Activation: RAT, LIVER, S-9, PCB, Method: STANDARD PLATE) “inactive; negative”.

The record behind these values is PubChem BioAssay AID1259407 (Chemical Carcinogenesis Research Information System (CCRIS), 2018).
